According to paper PMC4511007 (PLoS ONE, 2015):
Read-outs that look alike come from different tables or passages of the source.

Key:
RV venom PLA2 = experiment: Indirect haemolytic activity (RV venom PLA2 inhibition); format: biochemical, Vipera russelli; settings: 1 μg RV venom pre-incubated with compound 10 min at 37°C, NS: Not Significant
VRV-PLA2-VIII = VRV-PLA2-VIII (Daboia russelii, UniProt P59071); experiment: biochemical; design: species or system Vipera russelli
VRV-PLA2-VIII, sequence (P59071 whole entry, looked up): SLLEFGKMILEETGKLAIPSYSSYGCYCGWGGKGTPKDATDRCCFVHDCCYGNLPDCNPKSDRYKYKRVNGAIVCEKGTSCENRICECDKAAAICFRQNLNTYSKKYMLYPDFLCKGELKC

Row | SMILES | IC50 (RV venom PLA2) [µM] | IC50 (VRV-PLA2-VIII) [µM] | melting point [°C] | IC50 (VRV-PLA2-VIII; read-out: IC50 (μM) VRV-PLA2-VIII) [µM]
1 | CC(=O)c1c(C)nc2c(-c3ccc(Cl)c(C(F)(F)F)c3)cccn12 [3a, 1-(8-(4-chloro-3-(trifluoromethyl)phenyl)-2-methylimidazo[1,2-a]pyridin-3-yl)ethanone] | 110 | 155 | 141 to 143 | 
2 | CC(=O)c1c(C)nc2c(-c3ccc(OCc4ccccc4)c(F)c3)cccn12 [3b, 1-(8-(4-(benzyloxy)-3-fluorophenyl)-2-methylimidazo[1,2-a]pyridin-3-yl)ethanone] | > 500 | 140 | 154 to 156 | 
3 | CC(=O)c1c(C)nc2c(-c3ccccc3)cccn12 [3c, 1-(2-methyl-8-phenylimidazo[1,2-a]pyridin-3-yl)ethanone] | 194 |  | 160 to 162 | 
4 | CC(=O)c1c(C)nc2c(-c3cccc(Cl)c3)cccn12 [3d, 1-(8-(3-chlorophenyl)-2-methylimidazo[1,2-a]pyridin-3-yl)ethanone] | 59.1 | 89.1 | 114 to 116 | 
5 | COc1cccc(-c2cccn3c(C(C)=O)c(C)nc23)c1 [3e, 1-(8-(3-methoxyphenyl)-2-methylimidazo[1,2-a]pyridin-3-yl)ethanone] | 46.4 | 65.3 | 116 to 119 | 
6 | CC(=O)c1c(C)nc2c(-c3cccc4ccccc34)cccn12 [3f, 1-(2-methyl-8-(naphthalen-1-yl)imidazo[1,2-a]pyridin-3-yl)ethanone] | 14.3 | 23.1 | 179 to 182 | 
7 | CC(=O)c1c(C)nc2c(-c3ccc(Cl)cc3)cccn12 [3g, 1-(8-(4-chlorophenyl)-2-methylimidazo[1,2-a]pyridin-3-yl)ethanone] | 219 | 195 | 111 to 114 | 
8 | CCC(CCc1cccn2c(C(C)=O)c(C)nc12)C(=O)NC1CCCC1 (centres unmarked) [3h, 4-(3-acetyl-2-methylimidazo[1,2-a]pyridin-8-yl)-N-cyclopentyl-2-ethylbutanamide] | 105 | 114 | 117 to 119 | 
9 | COc1cccc(-c2cccn3c(C(C)=O)c(C)nc23)c1F [3i, 1-(8-(2-fluoro-3-methoxyphenyl)-2-methylimidazo[1,2-a]pyridin-3-yl)ethanone] | 123 | 135 | 190 to 192 | 
10 | CC(=O)c1c(C)nc2c(-c3ccccc3C)cccn12 [3j, 1-(2-methyl-8-(o-tolyl)imidazo[1,2-a]pyridin-3-yl)ethanone] | 166 | 189 | 157 to 159 | 
11 | CC(=O)c1c(C)nc2c(-c3ccc(C(F)(F)F)cc3)cccn12 [3k, 1-(2-methyl-8-(4-(trifluoromethyl)phenyl)imidazo[1,2-a]pyridin-3-yl)ethanone] | > 500 |  | 121 to 123 | > 100
12 | CCc1ccc(-c2cccn3c(C(C)=O)c(C)nc23)cc1 [3l, 1-(8-(4-ethylphenyl)-2-methylimidazo[1,2-a]pyridin-3-yl)ethanone] | > 500 | 43.2 | 169 to 172 | 
